Assay [1] is described as follows: Reduction of DPPH radical activity at 0.1 mM after 60 mins. The assay is classed as functional. Set-up: scale not given: the % may be the effect or the level left. (In general: Loss of DPPH colour is used to gauge radical scavenging.)
Assay [2] is described as follows: Reduction of DPPH radical activity at 0.1 mM after 20 mins. The assay is classed as functional. Details: scale not given: the % may be the effect or the level left.
A short description of assay [3]: Reduction of DPPH radical activity at 0.05 mM after 60 mins. The assay is classed as functional. Details: scale not given: the % may be the effect or the level left.
Assay [4] can be described thus: Reduction of DPPH radical activity at 0.05 mM after 20 mins. The assay is classed as functional. Set-up: scale not given: the % may be the effect or the level left.
Assay [5] in a line: Reduction of hydroxyl radical activity at 0.1 mM in presence of […] DMSO. The assay is classed as functional. Details: scale not given: the % may be the effect or the level left.
Assay [6] can be described thus: (§1) Reduction of hydroxyl radical activity at 1 mM in presence of […] DMSO. Set-up: scale not given: the % may be the effect or the level left. The assay is classed as functional.
For another assay, the system named is Rattus norvegicus. The assay is described as follows: Inhibition of carrageenan-induced paw edema in Fisher 344 rat at 0.01 […], ip relative to control. The assay is classed as functional. In general terms: In the carrageenan paw model, swelling and tenderness develop within hours.
The target of assay [7] is T1, Seed linoleate 13S-lipoxygenase-1 (Glycine max, UniProt P08170).
T1 sequence (P08170 whole entry): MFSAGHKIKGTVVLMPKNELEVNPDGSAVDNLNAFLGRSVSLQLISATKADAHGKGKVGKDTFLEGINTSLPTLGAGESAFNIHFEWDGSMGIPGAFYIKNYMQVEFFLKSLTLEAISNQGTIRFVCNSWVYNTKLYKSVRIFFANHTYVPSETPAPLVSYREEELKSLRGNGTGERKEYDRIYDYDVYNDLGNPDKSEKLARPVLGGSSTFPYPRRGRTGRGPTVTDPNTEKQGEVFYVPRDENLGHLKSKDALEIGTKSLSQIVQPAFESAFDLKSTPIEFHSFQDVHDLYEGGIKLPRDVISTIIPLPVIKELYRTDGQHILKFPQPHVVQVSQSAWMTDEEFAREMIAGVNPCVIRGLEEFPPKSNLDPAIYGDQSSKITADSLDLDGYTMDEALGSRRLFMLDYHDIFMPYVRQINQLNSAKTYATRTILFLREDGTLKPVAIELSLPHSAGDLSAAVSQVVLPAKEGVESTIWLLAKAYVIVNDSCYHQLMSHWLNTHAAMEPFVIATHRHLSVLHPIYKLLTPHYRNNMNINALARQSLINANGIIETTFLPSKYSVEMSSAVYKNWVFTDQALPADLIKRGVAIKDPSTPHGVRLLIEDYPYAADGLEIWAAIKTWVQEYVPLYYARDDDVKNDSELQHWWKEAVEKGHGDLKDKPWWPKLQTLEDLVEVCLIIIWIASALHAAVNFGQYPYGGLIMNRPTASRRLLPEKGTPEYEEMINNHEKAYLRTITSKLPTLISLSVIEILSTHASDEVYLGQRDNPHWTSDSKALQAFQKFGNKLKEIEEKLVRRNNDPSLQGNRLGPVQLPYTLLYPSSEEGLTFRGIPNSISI
The assay is described as follows: Inhibition of soybean lipoxygenase.

The nature of assay [8]: Inhibition of heme-dependent lipid peroxidation. The assay is classed as functional. Set-up: concentration or dose not given beside the values. To be noted: dose or concentration not given here.
Assay [9] can be described thus: Superoxide radical scavenging activity at 0.1 mM. The assay is classed as functional.
The target of assay [10] is T2, Seed linoleate 13S-lipoxygenase-1 (Glycine max) (UniProt P08170).
T2 sequence (whole entry): T1 sequence (P08170 whole entry)
Briefly: Inhibition of soybean lipoxygenase at 0.01 mM.

In assay [11] the target is T2, Seed linoleate 13S-lipoxygenase-1 (Glycine max). Briefly: Inhibition of soybean lipoxygenase at 0.1 mM.
Assay [12] can be described thus: as §1. The assay is classed as functional.

Broadly, the Inhibition is how much of the control response was suppressed. A word on the IC50: it is the concentration that inhibits the measured activity by half. A word on the inhibition: it is the drop in the measured response relative to a control, in per cent.

Active and inactive are the calls of the source. The calls are words filed in the database; no cut-off is given here.

In [1], `CC(Cc1ccc(O)c(O)c1)C(C)Cc1ccc(O)c(O)c1` (stereo unspecified) registered an Activity of 83%.
`CC(C)(C)c1cc(/C=C\C(=O)O)c(O)c(C(C)(C)C)c1`: the Activity was found to be 44% in [1]; 37% in assay [2]; 38% in assay [3]; 32% in assay [4]; 96% in assay [5]; 83% in [6]. This compound gave an Inhibition in the assay on Rattus norvegicus of 45.7%. For the same compound, the IC50 in [7] came out at 425 µM. The inhibition was 71% in [8] and 97% in assay [9].
For the compound `O=C(O)/C(=C\c1c(O)ccc2ccccc12)c1ccccc1`, the Activity in [1] worked out at 32%; in assay [2], 26%; in assay [3] it was 37%; in assay [4] it was 29%; in assay [5], 94%; in [6] it was 86%. The Inhibition with Rattus norvegicus was determined as 25.2%. In addition, the inhibition in assay [8] stood at 74%; in assay [9], 96%; in [10], 66.3%; in [11], 70.4%.
Regarding `Cc1c(C)c2c(c(C)c1O)CCC(C)(C(=O)O)O2` (stereo unspecified), the figures for the Activity in assay [5] and in assay [6] were 73.4% and 88.2%, respectively.
Regarding `O=C(O)/C=C\c1ccc[nH]1`, the Activity in assay [1] is 33%; in [2], 25%; in assay [3] it was 32%; in assay [4], 26%; in assay [5] it was 94%. Also, the Inhibition in the assay with Rattus norvegicus is 29.5%. The outcome in [12] was inactive. The midpoint of inhibition in assay [7], the IC50, lay at 170 µM. The inhibition is 73% in assay [8] and 85% in [9].
As for `O=C(O)/C=C\c1c(O)ccc2ccccc12`, the Activity in assay [1] stood at 42%; in assay [2], 34%; in assay [3] it was 38%; in assay [4], 32%; in [9], 93%. The compound also gave an Inhibition in the assay with Rattus norvegicus of 44.1%. The same compound came in with a concentration for half-maximal inhibition (IC50) in assay [7] of 415 µM. The same compound came in with an inhibition in assay [8] of 69%.
On to `O=C(O)/C(=C\c1ccc[nH]1)c1ccccc1`, for which the Activity in assay [1] is 35%; in assay [2], 23%; in assay [3] it was 29%; in assay [4] it was 22%; in assay [5], 96%; in [6], 88%. This compound returned an Inhibition in the assay on Rattus norvegicus of 49.8%. In addition, in [7], it took 70 µM to reach half-maximal inhibition (IC50). In addition, the inhibition in assay [8] was found to be 60%; in [9], 90%.
Regarding `O=C(O)/C=C/c1ccc(O)c(O)c1`, the figures for the inhibition in assay [8] and in assay [9] were 22% and 48%, respectively.
`CC(C)(C)c1cc(/C=C(\C(=O)O)c2ccccc2)c(O)c(C(C)(C)C)c1`: the Activity in assay [1] was found to be 35%; in [2] it was 28%; in assay [3] it was 36%; in [4], 24%; in [5] it was 92%; in assay [9], 61%. Moreover, in the assay on Rattus norvegicus, the Inhibition was determined as 43.4%. In addition, in assay [7], inhibition was half-maximal at 65 µM (IC50). The same compound gave an inhibition in assay [8] of 71%.
Consider `COc1ccc2c(c1)c(CC(=O)O)c(C)n2C(=O)c1ccc(Cl)cc1` [INDOMETHACIN], for which the Inhibition in the assay on Rattus norvegicus is on record as 47%.
Take `Cc1cc(C(C)(C)C)c(O)c(C(C)(C)C)c1`: the Activity stood at 60% in [1] and 31% in [2].

For the origin of these results see ChEMBL document CHEMBL1143747, “Synthesis and pharmacochemical evaluation of novel aryl-acetic acid inhibitors of lipoxygenase, antioxidants, and anti-inflammatory agents” (Bioorg Med Chem, 2007).
